Test results reported in patent US10952436B2, “Microbiocidal quinoline (thio)carboxamide derivatives” (SYNGENTA PARTICIPATIONS AG, priority 2017, dated 2021).
Where two headings read alike, the source gives them in different places.

Legend:
Gaeumannomyces graminis = test: Gaeumannomyces graminis/Liquid Culture (Take-all of Cereals); assay type: cell-based; conditions: read-out: control of Gaeumannomyces graminis
Fusarium culmorum [1] = test: microbe, parasite or virus in culture; assay type: cell-based; conditions: read-out: control of Fusarium culmorum
[2] = system: Glomerella lagenarium (Colletotrichum lagenarium); test: Glomerella lagenarium (Colletotrichum lagenarium)/Liquid Culture (Anthracnose); assay type: cell-based; conditions: Colletotrichum orbiculare, read-out: control of Glomerella lagenarium
[3] = system: Monographella nivalis (Microdochium nivale); test: Monographella nivalis (Microdochium nivale)/Liquid Culture (Foot Rot Cereals); assay type: cell-based; conditions: read-out: control of Monographella nivalis
[4] = system: Magnaporthe grisea (Pyricularia oryzae); test: microbe, parasite or virus in culture; assay type: cell-based; conditions: read-out: control of Magnaporthe grisea
[5] = system: Botryotinia fuckeliana (Botrytis cinerea); test: Botryotinia fuckeliana (Botrytis cinerea)/Liquid Culture (Gray Mould); assay type: cell-based; conditions: read-out: control of Botryotinia fuckeliana
Fusarium culmorum [6] = test: whole plant or invertebrate; assay type: in vivo; conditions: in Triticum aestivum, read-out: control of Fusarium culmorum
Sclerotinia sclerotiorum = test: Sclerotinia sclerotiorum/Liquid Culture (Cottony Rot); conditions: read-out: control of Sclerotinia sclerotiorum
Procedure: Mycelia fragments of a newly grown liquid culture of the fungus are directly mixed into nutrient broth (Vogels broth). After placing a (DMSO) solution of test compound into a microtiter plate (96-well format) the nutrient broth containing the fungal material is added. The test plates are incubated at 24° C. and the inhibition of growth is determined photometrically 3-4 days after application.

[7] = system: Magnaporthe grisea (Pyricularia oryzae); test: whole plant or invertebrate; assay type: in vivo; conditions: foliar, read-out: control of Magnaporthe grisea
[8] = 200 ppm, liquid culture, compared to untreated control, 4-5 days after application
[9] = 200 ppm, liquid culture, compared to untreated control, 3-4 days after application

Row | Compound | inhibition of growth at 200 ppm (Gaeumannomyces graminis; [8]) | inhibition of growth at 200 ppm (Fusarium culmorum [1]) | inhibition of growth at 200 ppm [2, 9] | inhibition of growth at 200 ppm [3, 8] | inhibition of growth at 200 ppm [4] | melting point | inhibition of growth at 200 ppm [5, 9] | pest or weed control at 200 ppm (Fusarium culmorum [6]) | inhibition of growth at 200 ppm (Gaeumannomyces graminis) | inhibition of growth at 20 ppm (Sclerotinia sclerotiorum) | inhibition of growth at 200 ppm [2] | inhibition of growth at 200 ppm [3] | inhibition of growth at 200 ppm [5] | pest or weed control at 200 ppm [7]
1 | C=C(C)CC(C)(Cc1ccccc1)C(=O)Nc1cnc2c(F)cccc2c1C (stereo not drawn) [Compound E-65, 2-benzyl-N-(8-fluoro-4-methyl-3-quinolyl)-2,4-dimethyl-pent-4-enamide] | ≥ 80% | ≥ 80% | ≥ 80% | ≥ 80% | ≥ 80% | 105 to 109 °C | ≥ 80% | – | – | – | – | – | – | –
2 | CC(F)(F)CC(C)(Cc1ccccc1)C(=O)Nc1cnc2c(F)cccc2c1 (stereo not drawn) [Compound E-68, 2-benzyl-4,4-difluoro-N-(8-fluoro-3-quinolyl)-2-methyl-pentanamide] | ≥ 80% | ≥ 80% | ≥ 80% | ≥ 80% | ≥ 80% | 156 to 158 °C | ≥ 80% | ≥ 80% | – | – | – | – | – | –
3 | CC1(CC(C)(Cc2ccccc2)C(=O)Nc2cnc3c(F)cccc3c2)CC1 (stereo not drawn) [Compound E-70, 2-benzyl-N-(8-fluoro-3-quinolyl)-2-methyl-3-(1-methylcyclopropyl) propanamide] | ≥ 80% | ≥ 80% | ≥ 80% | – | ≥ 80% | 149 to 151 °C | ≥ 80% | – | – | – | – | – | – | –
4 | C=C(F)CC(C)(Cc1ccccc1)C(=O)Nc1cnc2c(F)cccc2c1 (stereo not drawn) [Compound E-71, 2-benzyl-4-fluoro-N-(8-fluoro-3-quinolyl)-2-methyl-pent-4-enamide] | ≥ 80% | ≥ 80% | ≥ 80% | ≥ 80% | ≥ 80% | 132 to 134 °C | ≥ 80% | ≥ 80% | – | – | – | – | – | –
5 | C=C(C)CC(C)(Cc1ccccc1)C(=O)Nc1cnc2c(F)cccc2c1 (stereo not drawn) [Compound E-74, 2-benzyl-N-(8-fluoro-3-quinolyl)-2,4-dimethyl-pent-4-enamide] | – | ≥ 80% | – | – | ≥ 80% | 147 to 149 °C | – | ≥ 80% | ≥ 80% | ≥ 80% | ≥ 80% | ≥ 80% | ≥ 80% | –
6 | CC(Cc1ccccc1)(CC1CC1)C(=O)Nc1cnc2c(F)cccc2c1 (stereo not drawn) [Compound E-76, 2-benzyl-3-cyclopropyl-N-(8-fluoro-3-quinolyl)-2-methyl-propanamide] | ≥ 80% | ≥ 80% | ≥ 80% | ≥ 80% | ≥ 80% | 157 to 159 °C | ≥ 80% | – | – | – | – | – | – | ≥ 80%
7 | O=C(Nc1cnc2c(F)cccc2c1)C(Cc1ccccc1)CC(F)(F)F (stereo not drawn) [Compound E-82, 2-benzyl-4,4,4-trifluoro-N-(8-fluoro-3-quinolyl)butanamide] | ≥ 80% | ≥ 80% | ≥ 80% | ≥ 80% | ≥ 80% | 161 to 164 °C | ≥ 80% | ≥ 80% | – | – | – | – | – | –
8 | CC(C)CC(C#N)(Cc1ccccc1)C(=O)Nc1cnc2c(F)cccc2c1 (stereo not drawn) [Compound E-83, 2-benzyl-2-cyano-N-(8-fluoro-3-quinolyl)-4-methyl-pentanamide] | ≥ 80% | ≥ 80% | ≥ 80% | ≥ 80% | ≥ 80% | – | ≥ 80% | ≥ 80% | – | – | – | – | – | –
9 | CC(C)CC(C)(Cc1ccccc1)C(=O)Nc1cnc2ccccc2c1 (stereo not drawn) [Compound E-85, 2-benzyl-2,4-dimethyl-N-(3-quinolyl)pentanamide] | ≥ 80% | ≥ 80% | ≥ 80% | – | – | 147 to 148 °C | ≥ 80% | – | – | – | – | – | – | –
10 | CC(C)CC(C)(Cc1ccccc1)C(=O)Nc1cnc2c(F)cccc2c1 (stereo not drawn) [Compound E-87, 2-benzyl-N-(8-fluoro-3-quinolyl)-2,4-dimethyl-pentanamide] | ≥ 80% | ≥ 80% | ≥ 80% | ≥ 80% | ≥ 80% | 140 to 142 °C | ≥ 80% | ≥ 80% | – | ≥ 80% | – | – | – | –
